The values that follow come from ChEMBL document CHEMBL1125900, “Biologically active taxol analogues with deleted A-ring side chain substituents and variable C-2' configurations” (J Med Chem, 1991).

≈ marks a conversion by molar mass, not a printed value.

In series [1] the test system is CHO. Put plainly: Concentration that inhibits cell division by 50% after 72 hr for CHO cells was determined. The series is classed as functional. To be noted: Cricetulus griseus, read-out: ED50 (the source's name).
For series [2], the species on record is Homo sapiens. As to the kind of experiment: Effect on microtubule protein assembly was determined in vitro. The series is classed as functional.
Series [3] in a line: Solubility in H2O was measured. To be noted: water. It is filed as physicochemical.
Series [4] deals with J774.2. Put plainly: Concentration that inhibits cell division by 50% after 72 hr for J774.2 cells was determined. To be noted: Mus musculus, J774.2, 72 h; read-out: ED50 (the source's name). The series is classed as functional.

Regarding `CC(=O)O[C@H]1C(=O)[C@@]2(C)[C@H]([C@H](OC(=O)c3ccccc3)[C@]3(O)C[C@H](OC(=O)[C@@H](C)O)C(C)=C1C3(C)C)[C@]1(OC(C)=O)CO[C@@H]1C[C@@H]2O`, the EC50 is more than 45 µM in series [1] and 27 µM in series [4]. Moreover, the Assembly in series [2] amounted to 31%. Moreover, the concentration in solution in series [3] (solubility) came to 820 µM (≈ 540 µg/mL).

On to `CC(=O)O[C@H]1C(=O)[C@@]2(C)[C@H]([C@H](OC(=O)c3ccccc3)[C@]3(O)C[C@H](OC(=O)[C@@H](O)Cc4ccccc4)C(C)=C1C3(C)C)[C@]1(OC(C)=O)CO[C@@H]1C[C@@H]2O`, for which the figures for the EC50 in series [1] and in series [4] were 5.3 µM and 3.4 µM, respectively. In series [2], the Assembly is reported as 69%. The solubility (in general, the concentration that dissolves in the medium under given conditions) in series [3] was 160 µM (≈ 118 µg/mL).

Consider `CC(=O)O[C@H]1C(=O)[C@@]2(C)[C@H]([C@H](OC(=O)c3ccccc3)[C@]3(O)C[C@H](OC(=O)[C@H](O)Cc4ccccc4)C(C)=C1C3(C)C)[C@]1(OC(C)=O)CO[C@@H]1C[C@@H]2O`, for which the EC50 in series [1] was 5.5 µM; in series [4] it was 3.5 µM. In addition, in series [2], the Assembly is 68%. The amount in solution in series [3] (solubility) came to 175 µM (≈ 129 µg/mL).

For `CC(=O)O[C@H]1C(=O)[C@@]2(C)[C@H]([C@H](OC(=O)c3ccccc3)[C@]3(O)C[C@H](OC(=O)[C@H](C)O)C(C)=C1C3(C)C)[C@]1(OC(C)=O)CO[C@@H]1C[C@@H]2O`, the EC50 in series [1] was more than 45 µM; in series [4], 29 µM. This molecule displayed an Assembly in series [2] of 38%. The molecule also returned a solubility in series [3] of 1000 µM (≈ 659 µg/mL).

The molecule `CC(=O)O[C@H]1C(=O)[C@@]2(C)[C@H]([C@H](OC(=O)c3ccccc3)[C@]3(O)C[C@H](OC(=O)[C@@H](O)CNC(=O)c4ccccc4)C(C)=C1C3(C)C)[C@]1(OC(C)=O)CO[C@@H]1C[C@@H]2O` returned a solubility in series [3] of 565 µM (≈ 439 µg/mL).

With `CC(=O)O[C@H]1C(=O)[C@@]2(C)[C@H]([C@H](OC(=O)c3ccccc3)[C@]3(O)C[C@H](OC(=O)[C@H](O)CNC(=O)c4ccccc4)C(C)=C1C3(C)C)[C@]1(OC(C)=O)CO[C@@H]1C[C@@H]2O`, the EC50 came to 32 µM in series [1] and 20 µM in series [4]. Moreover, the Assembly in series [2] came out at 60%. This molecule also showed a solubility in series [3] of 615 µM (≈ 478 µg/mL).

On to `Nc1nc2c(ncn2[C@@H]2O[C@H](COP(=O)(O)OP(=O)(O)OP(=O)(O)O)[C@@H](O)[C@H]2O)c(=O)[nH]1` [GUANOSINE TRIPHOSPHATE], for which the Assembly in series [2] was determined as 70%.

Turning to `CC(=O)O[C@H]1C(=O)[C@@]2(C)[C@H]([C@H](OC(=O)c3ccccc3)[C@]3(O)C[C@H](OC(=O)[C@H](O)[C@@H](NC(=O)c4ccccc4)c4ccccc4)C(C)=C1C3(C)C)[C@]1(OC(C)=O)CO[C@@H]1C[C@@H]2O` [PACLITAXEL], the EC50 in series [1] amounted to 0.35 µM; in series [4], 0.09 µM. In series [2], this molecule displayed an Assembly of 100%.
